Values of other authors in patent US5756528A, “Inhibitors of farnesyl-protein transferase” (Merck & Co., Inc., priority 1996, dated 1998).

System: farnesyl-protein transferase
Settings: via HMG-CoA reductase inhibition, background literature

SMILES | Indirect inhibition of farnesyl-protein transferase in vivo
CC[C@H](C)C(=O)O[C@H]1CCC=C2C=C[C@H](C)[C@H](CC[C@@H]3C[C@@H](O)CC(=O)O3)[C@H]21 [compactin] | Indirect inhibition of farnesyl-protein transferase in vivo has been demonstrated
CC[C@H](C)C(=O)O[C@H]1C[C@@H](C)C=C2C=C[C@H](C)[C@H](CC[C@@H]3C[C@@H](O)CC(=O)O3)[C@H]21 [lovastatin] | Indirect inhibition of farnesyl-protein transferase in vivo has been demonstrated
